Values quoted from earlier work in patent publication US4745233A, “Derivatives of 1,1,2,2-tetramethyl-1,2-bis-(2-fluoro-4-hydroxyphenyl)-ethane” (Asta-Werke Aktiengesellschaft, priority 1985, dated 1988).

Experiments:
[1] = test system: oestrone- or oestradiol-stimulated uterus growth; conditions: juvenile mice; known compound
[2] = test system: DMBA-induced mammary carcinomas; conditions: Sprague Dawley rats; known compound
[3] = biological target: T1, oestrogen receptor (Bos taurus, UniProt P49884); conditions: known compound, literature
T1 sequence (P49884 1-596): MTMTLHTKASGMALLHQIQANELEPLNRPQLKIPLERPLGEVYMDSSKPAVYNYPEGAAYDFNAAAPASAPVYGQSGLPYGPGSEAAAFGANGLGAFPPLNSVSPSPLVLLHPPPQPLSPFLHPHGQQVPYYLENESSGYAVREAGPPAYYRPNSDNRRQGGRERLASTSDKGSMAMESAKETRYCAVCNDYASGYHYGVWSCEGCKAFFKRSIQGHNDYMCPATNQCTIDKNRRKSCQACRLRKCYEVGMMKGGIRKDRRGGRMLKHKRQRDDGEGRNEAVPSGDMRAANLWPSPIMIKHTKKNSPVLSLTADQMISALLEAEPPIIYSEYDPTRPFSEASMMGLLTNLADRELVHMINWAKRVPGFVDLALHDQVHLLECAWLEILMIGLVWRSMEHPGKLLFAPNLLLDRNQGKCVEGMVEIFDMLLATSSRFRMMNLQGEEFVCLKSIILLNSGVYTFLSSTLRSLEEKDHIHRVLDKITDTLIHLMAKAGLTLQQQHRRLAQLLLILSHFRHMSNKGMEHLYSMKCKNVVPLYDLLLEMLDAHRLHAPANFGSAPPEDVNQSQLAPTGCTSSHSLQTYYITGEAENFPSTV

Q: For `CC(C)(c1ccc(O)cc1)C(C)(C)c1ccc(O)cc1` [1,1,2,2-tetramethyl-1,2-bis-(4-hydroxyphenyl)-ethane], which “antioestrogen effect: inhibition of oestrone- or oestradiol-stimulated uterus growth” value [1] is on record?
A: strong effect as antioestrogen

Q: What about the “growth of DMBA-induced mammary carcinoma” value [2] of the same molecule?
A: inhibits the growth

Q: What about the relative binding affinity [3] of the same molecule?
A: 3.6
